# In ChEMBL document CHEMBL1136650, “Glycine alpha-ketoamides as HCV NS3 protease inhibitors” (Bioorg Med Chem Lett, 2003):
# Numbered stars: 1 amine (or outer) side, 2 acyl side, 3 side chain; on linkers, the order of the positions; unused ones are H or OH. Square brackets hold non-standard residues; d marks the D form. Peptide text beside a SMILES is read from it. * marks the point of attachment. Abu(ψCOCO) = CC[C@H](N[*:1])C(=O)C(=O)[*:2]; X1 = O=C(C(=O)[*:2])[C@H](CC(F)F)N[*:1]; Pyrazinecarbonyl = O=C(c1cnccn1)*; X2 = CC(C)(N[*:1])C(=O)C(=O)[*:2]; X3 = O=C(C(=O)[*:2])C1(N[*:1])CC1; Cha = N[C@@H](CC1CCCCC1)C(=O)O; Aib = CC(C)(N)C(=O)O; NHAllyl = C=CCN*; Sar = CNCC(=O)O
# Molecular target: Genome polyprotein (Hepatitis C virus genotype 1a (isolate 1) (HCV), UniProt P26664)
# Test: Inhibitory concentration against HCV NS3 protease was determined
# Genome polyprotein, sequence (P26664 1027-1657 limits assumed): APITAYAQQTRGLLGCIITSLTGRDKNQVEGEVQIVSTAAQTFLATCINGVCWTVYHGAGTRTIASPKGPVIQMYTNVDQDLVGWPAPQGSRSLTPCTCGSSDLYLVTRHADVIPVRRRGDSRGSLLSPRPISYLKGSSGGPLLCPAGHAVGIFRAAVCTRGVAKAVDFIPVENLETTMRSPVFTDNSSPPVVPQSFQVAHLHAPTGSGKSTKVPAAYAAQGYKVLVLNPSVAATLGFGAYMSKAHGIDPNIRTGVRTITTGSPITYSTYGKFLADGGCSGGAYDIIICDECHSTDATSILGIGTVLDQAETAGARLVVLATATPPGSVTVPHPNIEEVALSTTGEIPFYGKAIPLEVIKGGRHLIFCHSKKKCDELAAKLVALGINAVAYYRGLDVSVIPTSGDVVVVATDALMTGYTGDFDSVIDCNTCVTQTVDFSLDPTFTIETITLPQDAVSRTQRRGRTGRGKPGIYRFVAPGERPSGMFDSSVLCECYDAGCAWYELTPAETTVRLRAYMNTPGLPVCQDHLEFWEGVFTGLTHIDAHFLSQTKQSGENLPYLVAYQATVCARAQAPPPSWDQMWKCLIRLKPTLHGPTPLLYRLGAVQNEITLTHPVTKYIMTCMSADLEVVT
row,SMILES,IC50 [µM]
1,CC[C@H](NC(=O)[C@H](CC1CCCCC1)NC(=O)[C@@H](NC(=O)[C@H](CC(C)C)NC(=O)c1cnccn1)[C@@H](C)CC)C(=O)C(=O)N(C)CC(=O)O (Pyrazinecarbonyl-LI[Cha][Abu(ψCOCO)][Sar]-OH),> 60
2,C=CCNC(=O)C(=O)[C@H](CC)NC(=O)[C@H](CC1CCCCC1)NC(=O)[C@@H](NC(=O)[C@H](CC(C)C)NC(=O)c1cnccn1)[C@@H](C)CC,2.7
3,CC[C@H](NC(=O)[C@H](CC1CCCCC1)NC(=O)[C@@H](NC(=O)[C@H](CC(C)C)NC(=O)c1cnccn1)[C@@H](C)CC)C(=O)C(=O)N[C@@H](C)C(=O)O,1.3
4,C#CCNC(=O)C(=O)[C@H](CC)NC(=O)[C@H](CC1CCCCC1)NC(=O)[C@@H](NC(=O)[C@H](CC(C)C)NC(=O)c1cnccn1)[C@@H](C)CC,1.6
5,CC[C@H](NC(=O)[C@H](CC1CCCCC1)NC(=O)[C@@H](NC(=O)[C@H](CC(C)C)NC(=O)c1cnccn1)[C@@H](C)CC)C(=O)C(=O)N1CCOCC1,> 60
6,CC[C@H](NC(=O)[C@H](CC1CCCCC1)NC(=O)[C@@H](NC(=O)[C@H](CC(C)C)NC(=O)c1cnccn1)[C@@H](C)CC)C(=O)C(=O)NCC(=O)OC (Pyrazinecarbonyl-LI[Cha][Abu(ψCOCO)]G-OMe),5.8
7,CC[C@H](NC(=O)[C@H](CC1CCCCC1)NC(=O)[C@@H](NC(=O)[C@H](CC(C)C)NC(=O)c1cnccn1)[C@@H](C)CC)C(=O)C(=O)NCc1ccccc1,11
8,CC[C@H](NC(=O)[C@H](CC1CCCCC1)NC(=O)[C@@H](NC(=O)[C@H](CC(C)C)NC(=O)c1cnccn1)[C@@H](C)CC)C(=O)C(=O)NC(C)(C)C(=O)O (Pyrazinecarbonyl-LI[Cha][Abu(ψCOCO)][Aib]-OH),> 60
9,CCNC(=O)C(=O)[C@H](CC)NC(=O)[C@H](CC1CCCCC1)NC(=O)[C@@H](NC(=O)[C@H](CC(C)C)NC(=O)c1cnccn1)[C@@H](C)CC,1.8
10,CC[C@H](C)[C@H](NC(=O)[C@H](CC(C)C)NC(=O)c1cnccn1)C(=O)N[C@@H](CC1CCCCC1)C(=O)NC(C)(C)C(=O)C(=O)NCC(=O)O (Pyrazinecarbonyl-LI[Cha][X2]G-OH),> 60
11,CC[C@H](NC(=O)[C@H](CC1CCCCC1)NC(=O)[C@@H](NC(=O)[C@H](CC(C)C)NC(=O)c1cnccn1)[C@@H](C)CC)C(=O)C(=O)N[C@H](C(=O)O)C(C)C (Pyrazinecarbonyl-LI[Cha][Abu(ψCOCO)]V-OH),3.6
12,CC[C@H](NC(=O)[C@H](CC1CCCCC1)NC(=O)[C@@H](NC(=O)[C@H](CC(C)C)NC(=O)c1cnccn1)[C@@H](C)CC)C(=O)C(=O)N[C@@H](CCCCN)C(=O)O (Pyrazinecarbonyl-LI[Cha][Abu(ψCOCO)]K-OH),7.7
13,CC[C@H](C)[C@H](NC(=O)[C@H](CC(C)C)NC(=O)c1cnccn1)C(=O)N[C@@H](CC1CCCCC1)C(=O)NC1(C(=O)C(=O)NCC(=O)O)CC1 (Pyrazinecarbonyl-LI[Cha][X3]G-OH),> 60
14,CC[C@H](NC(=O)[C@H](CC1CCCCC1)NC(=O)[C@@H](NC(=O)[C@H](CC(C)C)NC(=O)c1cnccn1)[C@@H](C)CC)C(=O)C(=O)NCCC(=O)O,12
15,CC[C@H](NC(=O)[C@H](CC1CCCCC1)NC(=O)[C@@H](NC(=O)[C@H](CC(C)C)NC(=O)c1cnccn1)[C@@H](C)CC)C(=O)C(=O)N1CCCC1,42
16,CC[C@H](NC(=O)[C@H](CC1CCCCC1)NC(=O)[C@@H](NC(=O)[C@H](CC(C)C)NC(=O)c1cnccn1)[C@@H](C)CC)C(=O)C(=O)N[C@H](C)C(=O)O,> 60
17,CC[C@H](NC(=O)[C@H](CC1CCCCC1)NC(=O)[C@@H](NC(=O)[C@H](CC(C)C)NC(=O)c1cnccn1)[C@@H](C)CC)C(=O)C(=O)NCC(N)=O (Pyrazinecarbonyl-LI[Cha][Abu(ψCOCO)]G-NH2),4.3
18,CC[C@H](NC(=O)[C@H](CC1CCCCC1)NC(=O)[C@@H](NC(=O)[C@H](CC(C)C)NC(=O)c1cnccn1)[C@@H](C)CC)C(=O)C(=O)N[C@@H](CC(=O)O)C(=O)O (Pyrazinecarbonyl-LI[Cha][Abu(ψCOCO)]D-OH),5.3
19,CC[C@H](C)[C@H](NC(=O)[C@H](CC(C)C)NC(=O)c1cnccn1)C(=O)N[C@@H](CC1CCCCC1)C(=O)N[C@@H](CC(F)F)C(=O)C(=O)NCC(=O)O (Pyrazinecarbonyl-LI[Cha][X1]G-OH),0.06
20,CC[C@H](NC(=O)[C@H](CC1CCCCC1)NC(=O)[C@@H](NC(=O)[C@H](CC(C)C)NC(=O)c1cnccn1)[C@@H](C)CC)C(=O)C(=O)NC1CC1,2.2
21,CC[C@H](NC(=O)[C@H](CC1CCCCC1)NC(=O)[C@@H](NC(=O)[C@H](CC(C)C)NC(=O)c1cnccn1)[C@@H](C)CC)C(=O)C(=O)NCC(=O)O (Pyrazinecarbonyl-LI[Cha][Abu(ψCOCO)]G-OH),0.23
22,C=CCNC(=O)C(=O)[C@H](CC)NC(=O)[C@@H]1CCCN1C(=O)[C@@H](NC(=O)[C@@H](NC(=O)[C@H](CCC(=O)O)NC(=O)[C@@H](N)CC(=O)O)C(C)C)C(C)C (H-DEVVP[Abu(ψCOCO)]-NHAllyl),0.42
